Measured values published in the supplement of paper PMC11208160.

Test: recombinant barcode read abundance after kanamycin selection (control-corrected) (log10(CPM+1)); higher = more efficient recombination; sequences stand for … in AGTGCAGAGAAAATCGGCCAGTTTTCTCTGCCTGCAGTCCGCATGCCGT…AGATTTATGCAGCGGACTGCCTTTCTCCCAAAGTGATAAACCGGACAGTATCATGGACCGGTTTTCCCGGTAATCCGTATTTGCAAGGTTGGTTTCACT; site = the 11-nt target
How it was run: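 Each value is log10(CPM+1). It describes recombination efficiency, taken as averaged, control-corrected counts per million of barcodes at recombinant junctions. The pooled E. coli library paired targets with IS621 bridge RNA target-binding loops, was co-electroporated with a donor plasmid, and was plated twice on chloramphenicol/ampicillin LB agar (control) and twice on chloramphenicol/ampicillin/kanamycin containing 0.1 mM IPTG.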
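Also: IS621 recombinase and bridge RNA in Escherichia coli cells.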

Row | Sequence | recombinant barcode read abundance (log10)
1 | TGAGGGCCTTGGGTTCTAACCTGTTGCCT (site AGAGGTCCTAG) | 0.186
2 | TGAGGGCCTTGGGTTCTAACCTGTTGCCT (site TGAGGGCCTAG) | 1.26
3 | TGAGGGGCTTGGGTTCTAACCTGTTGCCT (site TGAGAGGCTAG) | 0.275
4 | TGAGGGGCTTGGGTTCTAACCTGTTGCCT (site TGAGCGGCTAG) | 0.242
5 | TGAGGGGCTTGGGTTCTAACCTGTTGCCT (site TGAGGGGCTAG) | 1.24
6 | TGAGGGGCTTGGGTTCTAACCTGTTGCCT (site TGAGTGGCTAG) | 0.197
7 | TGAGGGTCTTGGGTTCTAACCTGTTGCTT (site AGAGGGTCTAA) | 0.497
8 | TGAGGGTCTTGGGTTCTAACCTGTTGCTT (site CGAGGGTCTAA) | 0.136
9 | TGAGGGTCTTGGGTTCTAACCTGTTGCTT (site GGAGGGTCTAA) | 0.0368
10 | TGAGGGTCTTGGGTTCTAACCTGTTGCTT (site TGAGGGTCTAA) | 0.452
11 | TGAGTCTCTTGGGTTCTAACCTGTTGCCA (site ACCCAGCCTCT) | 0.0473
12 | TGAGTCTCTTGGGTTCTAACCTGTTGCCA (site TGAGTCTCTTG) | 1.47
13 | TGAGTTCCTTGGGTTCTAACCTGTTGCTT (site TGAGTACCTAA) | 0.0626
14 | TGAGTTCCTTGGGTTCTAACCTGTTGCTT (site TGAGTCCCTAA) | 0.0401
15 | TGAGTTCCTTGGGTTCTAACCTGTTGCTT (site TGAGTGCCTAA) | 0.00865
16 | TGAGTTCCTTGGGTTCTAACCTGTTGCTT (site TGAGTTCCTAA) | 0.719
17 | TGATAGACTTGGGTTCTAACCTGTTGCAC (site AGAGAGACTGT) | 0.0172
18 | TGATAGACTTGGGTTCTAACCTGTTGCAC (site TGATAGACTGT) | 1.38
19 | TGATTTCCTTGGGTTCTAACCTGTTGCCT (site AGATTGCCTAG) | 0
20 | TGATTTCCTTGGGTTCTAACCTGTTGCCT (site TGATTTCCTAG) | 0
21 | TGCAATACTTGGGTTCTAACCTGTTGCAT (site ACAGTATCTCA) | 0.054
22 | TGCAATACTTGGGTTCTAACCTGTTGCAT (site TGCAATACTAT) | 0.136

Row | Sequence | recombinant barcode read abundance (log10)
23 | TGCAGGGCTTGGGTTCTAACCTGTTGCGG (site GCATACACTTG) | 0.177
24 | TGCAGGGCTTGGGTTCTAACCTGTTGCGG (site TGCAGGGCTCC) | 1.26
25 | TGCCAGACTTGGGTTCTAACCTGTTGCAT (site TGCCAGACTAT) | 1.12
26 | TGCCAGACTTGGGTTCTAACCTGTTGCAT (site TGCCAGCCTAG) | 0.466
27 | TGCCCGCCTTGGGTTCTAACCTGTTGCCT (site AGCCCGCCTAG) | 0.0736
28 | TGCCCGCCTTGGGTTCTAACCTGTTGCCT (site CGCCCGCCTAG) | 0.102
29 | TGCCCGCCTTGGGTTCTAACCTGTTGCCT (site GGCCCGCCTAG) | 0.757
30 | TGCCCGCCTTGGGTTCTAACCTGTTGCCT (site TGCCCGCCTAG) | 0.292
31 | TGCCGACCTTGGGTTCTAACCTGTTGCCT (site TGCCGACCTAG) | 0.321
32 | TGCCGACCTTGGGTTCTAACCTGTTGCCT (site TGCGGAGCTAG) | 0.185
33 | TGCCTAGCTTGGGTTCTAACCTGTTGCCT (site TGACTAGCTAG) | 0.0824
34 | TGCCTAGCTTGGGTTCTAACCTGTTGCCT (site TGCCTAGCTAG) | 0.24
35 | TGCCTAGCTTGGGTTCTAACCTGTTGCCT (site TGGCTAGCTAG) | 0.11
36 | TGCCTAGCTTGGGTTCTAACCTGTTGCCT (site TGTCTAGCTAG) | 0.0825
37 | TGCCTATCTTGGGTTCTAACCTGTTGCTT (site ATGTCTACTCT) | 0.325
38 | TGCCTATCTTGGGTTCTAACCTGTTGCTT (site TGCCTATCTAA) | 0.52
39 | TGCCTGCCTTGGGTTCTAACCTGTTGCCT (site AAGACAACTCC) | 0.06
40 | TGCCTGCCTTGGGTTCTAACCTGTTGCCT (site TGCCTGCCTAG) | 0.287
41 | TGCGCCTCTTGGGTTCTAACCTGTTGCTG (site TACGCCTCTTA) | 0.108
42 | TGCGCCTCTTGGGTTCTAACCTGTTGCTG (site TGCGCCTCTCA) | 1.26
43 | TGCGCTACTTGGGTTCTAACCTGTTGCCT (site TGCGCAACTAG) | 0.0205
44 | TGCGCTACTTGGGTTCTAACCTGTTGCCT (site TGCGCCACTAG) | 0.0462

Row | Sequence | recombinant barcode read abundance (log10)
45 | TGCGCTACTTGGGTTCTAACCTGTTGCCT (site TGCGCGACTAG) | 0.141
46 | TGCGCTACTTGGGTTCTAACCTGTTGCCT (site TGCGCTACTAG) | 0.25
47 | TGCGGAGCTTGGGTTCTAACCTGTTGCCG (site GATTATACTAA) | 0.0782
48 | TGCGGAGCTTGGGTTCTAACCTGTTGCCG (site TGCGGAGCTCG) | 0.726
49 | TGCGTCCCTTGGGTTCTAACCTGTTGCCT (site TGAGTCCCTAG) | 0.405
50 | TGCGTCCCTTGGGTTCTAACCTGTTGCCT (site TGCGTCCCTAG) | 0.291
51 | TGCGTCCCTTGGGTTCTAACCTGTTGCCT (site TGGGTCCCTAG) | 0.117
52 | TGCGTCCCTTGGGTTCTAACCTGTTGCCT (site TGTGTCCCTAG) | 0.0158
53 | TGCTCCTCTTGGGTTCTAACCTGTTGCCT (site AGCTCCTCTAG) | 0.0656
54 | TGCTCCTCTTGGGTTCTAACCTGTTGCCT (site CGCTCCTCTAG) | 0.153
55 | TGCTCCTCTTGGGTTCTAACCTGTTGCCT (site GGCTCCTCTAG) | 0.109
56 | TGCTCCTCTTGGGTTCTAACCTGTTGCCT (site TGCTCCTCTAG) | 0.274
57 | TGCTTCCCTTGGGTTCTAACCTGTTGCGG (site TGCTTCCCTCC) | 0.594
58 | TGCTTCCCTTGGGTTCTAACCTGTTGCGG (site TGGTGCCCTCC) | 0.114
59 | TGGACGACTTGGGTTCTAACCTGTTGCTT (site GATCGAGCTCT) | 0.0173
60 | TGGACGACTTGGGTTCTAACCTGTTGCTT (site TGGACGACTAA) | 0.592
61 | TGGACGCCTTGGGTTCTAACCTGTTGCCT (site TGGACGCCTAG) | 0.252
62 | TGGACGCCTTGGGTTCTAACCTGTTGCCT (site TGGACGTCTAG) | 0.0267
63 | TGGAGCACTTGGGTTCTAACCTGTTGCCT (site TGGAACACTAG) | 0
64 | TGGAGCACTTGGGTTCTAACCTGTTGCCT (site TGGACCACTAG) | 0.107
65 | TGGAGCACTTGGGTTCTAACCTGTTGCCT (site TGGAGCACTAG) | 1.11
66 | TGGAGCACTTGGGTTCTAACCTGTTGCCT (site TGGATCACTAG) | 0.0861

Row | Sequence | recombinant barcode read abundance (log10)
67 | TGGAGCCCTTGGGTTCTAACCTGTTGCAA (site TGGAGCCCTAT) | 0.0946
68 | TGGAGCCCTTGGGTTCTAACCTGTTGCAA (site TGGAGCCCTCT) | 0.0367
69 | TGGAGCCCTTGGGTTCTAACCTGTTGCAA (site TGGAGCCCTGT) | 0.263
70 | TGGAGCCCTTGGGTTCTAACCTGTTGCAA (site TGGAGCCCTTT) | 0.155
71 | TGGAGCCCTTGGGTTCTAACCTGTTGCAT (site TGGAGCCCTAT) | 0.211
72 | TGGAGCCCTTGGGTTCTAACCTGTTGCAT (site TGGAGCCCTCT) | 0.053
73 | TGGAGCCCTTGGGTTCTAACCTGTTGCAT (site TGGAGCCCTGT) | 0.0522
74 | TGGAGCCCTTGGGTTCTAACCTGTTGCAT (site TGGAGCCCTTT) | 0.15
75 | TGGATGCCTTGGGTTCTAACCTGTTGCCT (site TGAATGACTAG) | 0.0485
76 | TGGATGCCTTGGGTTCTAACCTGTTGCCT (site TGGATGCCTAG) | 0.884
77 | TGGATTGCTTGGGTTCTAACCTGTTGCCT (site TGGATTCCTAG) | 0.0162
78 | TGGATTGCTTGGGTTCTAACCTGTTGCCT (site TGGATTGCTAG) | 0.74
79 | TGGCACCCTTGGGTTCTAACCTGTTGCGG (site TGGAACCCTCC) | 0.129
80 | TGGCACCCTTGGGTTCTAACCTGTTGCGG (site TGGCACCCTCC) | 2.42
81 | TGGCACTCTTGGGTTCTAACCTGTTGCTT (site AGGCACTCTCA) | 0.177
82 | TGGCACTCTTGGGTTCTAACCTGTTGCTT (site TGGCACTCTAA) | 1.02
83 | TGGCCAACTTGGGTTCTAACCTGTTGCGT (site TAGTCAACTAC) | 0.434
84 | TGGCCAACTTGGGTTCTAACCTGTTGCGT (site TGGCCAACTAC) | 1.84
85 | TGGCGTCCTTGGGTTCTAACCTGTTGCCT (site TGGAGTCCTAG) | 0.0306
86 | TGGCGTCCTTGGGTTCTAACCTGTTGCCT (site TGGCGTCCTAG) | 0.963
